≈ marks a conversion by molar mass, not a printed value. Blank lines part the entries; values can stand above or below the compound they belong to. Calls of active or inactive are those of the source. The calls are words filed in the database; no cut-off is given here.
Columns and labels:
[1] = Drug accumulation in wild-type Candida albicans SC5314 at 50 microg/ml incubated for 3 hrs by HPLC analysis; format: ADME; conditions: dose 50 µg/ml
Candida albicans [2] = test: Antifungal activity against wild-type Candida albicans SC5314 assessed as inhibition of fungal growth measured after 24 hrs by CLSI based microtiter plate analysis; format: functional
Candida albicans [3] = test: microbe, parasite or virus in culture; format: functional; conditions: DSY654, time 24 hrs
Candida albicans [4] = test: Antifungal activity against clinical isolate fluconazole-resistant Candida albicans Gu5 harbouring TAC1 mutation overexpressing efflux pump CdrL and Cdr2 assessed as inhibition of fungal growth measured after 24 hrs by CLSI based microtiter plate analysis; format: functional
Candida albicans [5] = test: Antifungal activity against clinical isolate fluconazole-resistant Candida albicans CA632 assessed as inhibition of fungal growth measured after 24 hrs by CLSI based microtiter plate analysis; format: functional
[Candida] auris [6] = Antifungal activity against clinical isolate fluconazole-resistant Candida auris CBS12776 assessed as inhibition of fungal growth measured after 24 hrs by CLSI based microtiter plate analysis; format: functional; conditions: Candidozyma auris
Candida albicans [7] = test: Antifungal activity against clinical isolate Candida albicans YEM15 overexpressing efflux pump CdrL and Cdr2 assessed as inhibition of fungal growth measured after 24 hrs by CLSI based microtiter plate analysis; format: functional
Candida albicans [8] = test: Antifungal activity against clinical isolate fluconazole-resistant Candida albicans G5 harbouring MRR1 mutation overexpressing MdrL assessed as inhibition of fungal growth measured after 24 hrs by CLSI based microtiter plate analysis; format: functional
Cryptococcus neoformans = test: Antifungal activity against clinical isolate fluconazole-resistant Cryptococcus neoformans H99 assessed as inhibition of fungal growth measured after 24 hrs by CLSI based microtiter plate analysis; format: functional
Candida albicans [9] = test: Antifungal activity against clinical isolate Candida albicans SCMRRIR34MPG2A harbouring MRR1 mutation overexpressing efflux pump MdrL assessed as inhibition of fungal growth measured after 24 hrs by CLSI based microtiter plate analysis; format: functional
Nakaseomyces glabratus = test: Antifungal activity against clinical isolate fluconazole-resistant Candida glabrata CG2 assessed as inhibition of fungal growth measured after 24 hrs by CLSI based microtiter plate analysis; format: functional
Candida tropicalis = test: Antifungal activity against clinical isolate fluconazole-resistant Candida tropicalis CT10 assessed as inhibition of fungal growth measured after 24 hrs by CLSI based microtiter plate analysis; format: functional
Candida albicans [10] = test: Antifungal activity against clinical isolate Candida albicans YEM13 overexpressing efflux pump MdrL assessed as inhibition of fungal growth measured after 24 hrs by CLSI based microtiter plate analysis; format: functional
[Candida] auris [11] = Antifungal activity against clinical isolate fluconazole-resistant Candida auris CBS12774 assessed as inhibition of fungal growth measured after 24 hrs by CLSI based microtiter plate analysis; format: functional; conditions: Candidozyma auris
Candida albicans [12] = test: Antifungal activity against clinical isolate Candida albicans SCUPC2R14MPG2A harbouring UPC2 mutation overexpressing […] Erg11 assessed as inhibition of fungal growth measured after 24 hrs by CLSI based microtiter plate analysis; format: functional
Candida albicans [13] = test: Antifungal activity against clinical isolate fluconazole-resistant Candida albicans DSY296 harbouring TAC1 mutation overexpressing efflux pump CdrL and Cdr2 assessed as inhibition of fungal growth measured after 24 hrs by CLSI based microtiter plate analysis; format: functional
[14] = Candida albicans, SC5314, read-out: MIC80
[15] = Candida albicans, SC5314, 24 h, read-out: MIC80

Compound: C=C1C(=O)[C@@]2(C)CC[C@@H]3[C@]1(CC[C@H]1[C@@]3(C)CCC[C@@]1(C)C(=O)O)C2
Drug uptake ([1]; BLD = below limit of detection): Bld

Compound: C=C(C)[C@@H]1CC[C@]2(C(=O)O)CC[C@]3(C)[C@H](CC[C@@H]4[C@@]5(C)CC[C@H](O)C(C)(C)[C@@H]5CC[C@]43C)[C@@H]12 [BETULINIC ACID]
MIC (Candida albicans [2]; Candida albicans, SC5314): > 256 µg/mL | Drug uptake ([1]; BLD = below limit of detection): Bld

Compound: Cc1cc(N)c2ccccc2[n+]1CCCCCI.[I-]
MIC80 (Candida albicans [2]; [14]): 128 µg/mL | MIC80 (Candida albicans [3]): 128 µg/mL

Compound: CCOC(=O)C1=C(COCCNCCCOc2ccc(C(=N)N)cc2)NC(C)=C(C(=O)OC)C1c1ccccc1Cl (configuration not stated)
MIC (Candida albicans [2]): inactive | MIC80 (Candida albicans [2]; [15]): 4 µg/mL (≈ 6.84 µM) | MIC80 (Candida albicans [4]): 4 µg/mL (≈ 6.84 µM) | MIC80 (Candida albicans [5]): 4 µg/mL (≈ 6.84 µM) | MIC80 ([Candida] auris [6]): 8 µg/mL (≈ 13.7 µM) | MIC80 (Candida albicans [7]): 4 µg/mL (≈ 6.84 µM) | Drug uptake [1]: Active | MIC80 (Candida albicans [8]): 4 µg/mL (≈ 6.84 µM) | MIC80 (Cryptococcus neoformans): 8 µg/mL (≈ 13.7 µM) | MIC80 (Candida albicans [9]): 8 µg/mL (≈ 13.7 µM) | MIC80 (Nakaseomyces glabratus): 8 µg/mL (≈ 13.7 µM) | MIC80 (Candida tropicalis): 4 µg/mL (≈ 6.84 µM) | MIC80 (Candida albicans [10]): 4 µg/mL (≈ 6.84 µM) | MIC80 ([Candida] auris [11]): 8 µg/mL (≈ 13.7 µM) | MIC80 (Candida albicans [12]): 4 µg/mL (≈ 6.84 µM) | MIC80 (Candida albicans [13]): 8 µg/mL (≈ 13.7 µM)

Compound: N=C(N)c1ccc(OCCCN2CCC(=C3c4ccc(Cl)cc4CCc4cccnc43)CC2)cc1
MIC (Candida albicans [2]): inactive | MIC80 (Candida albicans [2]; [15]): 32 µg/mL (≈ 65.7 µM) | MIC80 (Candida albicans [4]): 64 µg/mL (≈ 131 µM) | MIC80 (Candida albicans [5]): 32 µg/mL (≈ 65.7 µM) | MIC80 ([Candida] auris [6]): 64 µg/mL (≈ 131 µM) | MIC80 (Candida albicans [7]): 32 µg/mL (≈ 65.7 µM) | Drug uptake [1]: Active | MIC80 (Candida albicans [8]): 32 µg/mL (≈ 65.7 µM) | MIC80 (Cryptococcus neoformans): 16 µg/mL (≈ 32.9 µM) | MIC80 (Candida albicans [9]): 32 µg/mL (≈ 65.7 µM) | MIC80 (Nakaseomyces glabratus): 64 µg/mL (≈ 131 µM) | MIC80 (Candida tropicalis): 32 µg/mL (≈ 65.7 µM) | MIC80 (Candida albicans [10]): 32 µg/mL (≈ 65.7 µM) | MIC80 ([Candida] auris [11]): 64 µg/mL (≈ 131 µM) | MIC80 (Candida albicans [12]): 32 µg/mL (≈ 65.7 µM) | MIC80 (Candida albicans [13]): 64 µg/mL (≈ 131 µM)

Compound: C[C@@H]1CC[C@@]2(OC1)O[C@H]1C[C@H]3[C@@H]4CC=C5C[C@@H](O)CC[C@]5(C)[C@H]4CC[C@]3(C)[C@H]1[C@@H]2C [DISOGENIN]
MIC (Candida albicans [2]; Candida albicans, SC5314): > 256 µg/mL | Drug uptake ([1]; BLD = below limit of detection): Bld

Compound: C=C1C(=O)[C@@]23CC[C@H]4[C@@](C)(CCC[C@@]4(C)C(=O)OCCCOc4ccc(C(=N)N)cc4)[C@@H]2CC[C@]1(O)C3
MIC80 (Candida albicans [2]; [15]): 4 µg/mL (≈ 7.86 µM) | MIC80 (Candida albicans [4]): 8 µg/mL (≈ 15.7 µM) | MIC80 (Candida albicans [5]): 4 µg/mL (≈ 7.86 µM) | MIC80 ([Candida] auris [6]): 8 µg/mL (≈ 15.7 µM) | MIC80 (Candida albicans [7]): 4 µg/mL (≈ 7.86 µM) | Drug uptake [1]: Active | MIC80 (Candida albicans [8]): 4 µg/mL (≈ 7.86 µM) | MIC80 (Cryptococcus neoformans): 8 µg/mL (≈ 15.7 µM) | MIC80 (Candida albicans [9]): 8 µg/mL (≈ 15.7 µM) | MIC80 (Nakaseomyces glabratus): 8 µg/mL (≈ 15.7 µM) | MIC80 (Candida tropicalis): 4 µg/mL (≈ 7.86 µM) | MIC80 (Candida albicans [10]): 4 µg/mL (≈ 7.86 µM) | MIC80 ([Candida] auris [11]): 8 µg/mL (≈ 15.7 µM) | MIC80 (Candida albicans [12]): 4 µg/mL (≈ 7.86 µM) | MIC80 (Candida albicans [13]): 4 µg/mL (≈ 7.86 µM)

Compound: CC1(C)CC[C@]2(C(=O)O)CC[C@]3(C)C(=CC[C@@H]4[C@@]5(C)CC[C@H](O)C(C)(C)[C@@H]5CC[C@]43C)[C@@H]2C1 [OLEANOLIC_ACID]
MIC (Candida albicans [2]; Candida albicans, SC5314): > 256 µg/mL | Drug uptake ([1]; BLD = below limit of detection): Bld

Compound: C=C1[C@H](O)[C@@]23CC[C@H]4[C@@](C)(CCC[C@@]4(C)C(=O)O)[C@@H]2CC[C@]1(O)C3
MIC (Candida albicans [2]; Candida albicans, SC5314): > 256 µg/mL | Drug uptake ([1]; BLD = below limit of detection): Bld

Compound: Fc1ccc(C(c2ccc(F)cc2)N2CCNCC2)cc1
MIC (Candida albicans [2]; Candida albicans, SC5314): > 256 µg/mL | Drug uptake ([1]; BLD = below limit of detection): Bld

Compound: Cc1ccc(Sc2ccccc2N2CCNCC2)c(C)c1 [VORTIOXETINE]
Drug uptake ([1]; BLD = below limit of detection): Bld | MIC (Candida albicans [3]): 4 µg/mL (≈ 13.4 µM)

Compound: CCOC(=O)C1=C(COCCN)NC(C)=C(C(=O)OC)C1c1ccccc1Cl (configuration not stated) [AMLODIPINE]
Drug uptake ([1]; BLD = below limit of detection): Bld | MIC (Candida albicans [3]): 32 µg/mL (≈ 78.3 µM)

Compound: COc1ccc2c(CCCI)c3[n+](cc2c1OC)CCc1cc2c(cc1-3)OCO2.[I-]
MIC80 (Candida albicans [2]; [14]): 64 µg/mL | MIC80 (Candida albicans [3]): 16 µg/mL

Now from value to compound:

Drug uptake ([1]; BLD = below limit of detection): Bld
Compound: C[C@H]1[C@H](C)CC[C@]2(C(=O)O)CC[C@]3(C)C(=CC[C@@H]4[C@@]5(C)CC[C@H](O)C(C)(C)[C@@H]5CC[C@]43C)[C@H]12 [URSOLIC ACID]

MIC80 (Candida albicans [2]; [14]): 8 µg/mL (≈ 22.3 µM) | Drug uptake [1]: Active
Compound: CC1(C)[C@@H]2CC[C@@]1(C)[C@@H](OC(=O)CCCOc1ccc(C(=N)N)cc1)C2

MIC (Candida albicans [2]): inactive | MIC (Candida albicans [3]): 16 µg/mL (≈ 43.3 µM)
Compound: O=C(OCCOCCO)c1ccccc1Nc1cccc(C(F)(F)F)c1 [ETOFENAMATE]

MIC80 (Candida albicans [2]; [14]): 32 µg/mL (≈ 61 µM) | Drug uptake [1]: Active
Compound: C=C1C(=O)O[C@@]23CC[C@H]4[C@@](C)(CCC[C@@]4(C)C(=O)OCCCOc4ccc(C(=N)N)cc4)[C@@H]2CC[C@]1(O)C3

MIC (Candida albicans [2]; Candida albicans, SC5314): > 256 µg/mL | Drug uptake ([1]; BLD = below limit of detection): Bld
Compound: CC(=O)O[C@H]1C[C@@]2(C)[C@@H](C[C@@H](O)[C@H]3[C@@]4(C)CC[C@@H](O)[C@@H](C)[C@@H]4CC[C@@]32C)/C1=C(\CCC=C(C)C)C(=O)O [FUSIDIC ACID]

MIC80 (Candida albicans [2]; [14]): 16 µg/mL (≈ 23.1 µM) | Drug uptake [1]: Active
Compound: CC(=O)O[C@H]1C[C@@]2(C)[C@@H](C[C@@H](O)[C@H]3[C@@]4(C)CC[C@@H](O)[C@@H](C)[C@@H]4CC[C@@]32C)/C1=C(\CCC=C(C)C)C(=O)OCCCOc1ccc(C(=N)N)cc1

Reference: ChEMBL document CHEMBL5365543, “Benzamidine Conjugation Converts Expelled Potential Active Agents into Antifungals against Drug-Resistant Fungi” (J Med Chem, 2023)
